# Test results as given in patent US20220349825A1, “METHOD AND DEVICE FOR MEASURING CELL CONTRACTILITY” (THE ROYAL INSTITUTION FOR THE ADVANCEMENT OF …, priority 2021, published 2022).
# Tested on: NIH-3T3 fibroblast cells
# Experiment: time-dependent coverage-based (PaCS) measurement of cellular forces of fibroblasts on square patterns on 12 kPa PDMS, compared with TFM
# Assay type: cell-based, mouse
# Conditions: 2 μM Cytochalasin D at end of 18 hours measurement; square patterns ~2400 μm^2; 12 kPa PDMS substrate
# Protocol: The ability of the coverage-based technique to resolve time-dependent work was further tested. Fibroblast cellular forces on square patterns (˜2400 μm^2) on PDMS substrates (12 kPa) for 18 hours were measured; to further test the sensitivity of this technique the cellular forces was inhibited by depolymerizing actin using Cytochalasin D (Cyto D) in the last few hours of measurement. Using time-dependent coverage-based technique, cellular forces with time was measured when compared to TFM measurements, even after the Cyto D treatment, as presented in FIGS. 9c and 9d. […] Also the low strain energy values of ˜0.1 pJ indicate minimum resolution of the measurement on 12 kPa PDMS substrate. […]
# After 16-18 hours of cell seeding, cells were stained with cell tracker green CMFDA (Thermofisher) to detect cell boundaries, and the plates were transferred to a lab-built heated stage perfused with 5% CO2 and mounted on a confocal microscope (Leica TCS SP8 with a 10×0.4 NA objective). With this setup, cells were imaged with transmission and fluorescence microscopy for extended periods, while maintaining a controlled culture environment
# In PaCS, cells are confined on adhesive micropatterns of known area on linearly elastic silicone substrates. […] First, the deformed and undeformed pattern area are measured by thresholding the fluorescent pattern images. […]
smiles,measurement,value
C=C1[C@@H](C)[C@H]2[C@H](Cc3ccccc3)NC(=O)[C@]23[C@H](OC(C)=O)/C=C/[C@@](C)(O)C(=O)[C@@H](C)C/C=C/[C@H]3[C@@H]1O [Cytochalasin D],cellular force (contractility) after drug treatment,decreased cellular force
same,pattern area after drug treatment,increased pattern area
